Reference: US12486229B2, “Indole derivative and application thereof” (SHANGHAI MEDICILON INC., priority 2020, dated 2025)

Tests used:
[1] = tested on: DSS induced ulcerative colitis in mice; experiment: DSS induced ulcerative colitis in mice; format: in vivo; parameters: key to Total stool scores: sum of shape (1-3) and bleeding (1-3) levels; normal = 1 each; Colon length: unit not given here; details: for Colon length / Colon weight / Effect on blood stool and loose stool compared with model group: day 9; for Colon weight compared with model group: P<0.05
Procedure: Molecular weight of DSS dextran sodium sulfate: 36,000 to 50,000, From MP Biomedical Company.
Preparation of molding agent: preparation of 3.5% DSS: 49 g DSS plus 1,400 mL high-temperature sterilized water.
Source of SPF male C57BL/6 mice: Beijing Weitong Lihua Experimental Animal Technology Co., Ltd. • Animal age at the beginning of the experiment: 6 to 8 weeks; • Animal weight at the beginning of the experiment: 22 to 25 g; • Adaptation time: 3 to 5 days;
The mice were divided into groups according to their weight, 10 mice in each group. The mice were administrated once a day by gavage (or blank) according to the following Table 4.
Animals were given 3.5% DSS solution for free drinking water modeling (the day of modeling was recorded as day 1), and the modeling agent was replaced once every two days for 7 consecutive days, and then (day 8) 3.5% DSS was replaced with ordinary drinking water for another 1 day.
• Preparation of solvent 1: 0.66 mL DMSO, 1.32 mL Solutol and 11.22 mL Saline were mixed to prepare 13.2 mL of solvent 1; • Preparation of solvent 2: 0.3 mL DMSO, 0.6 mL Solutol and 5.1 mL Saline were mixed to prepare 6 mL of solvent 2; • Preparation of solution of compound of Example 3: 39.6 mg of compound of Example 3 was dissolved in 13.2 mL of solvent 1 to obtain the solution of compound 1 of Example 3, the solution 1 of compound of Example 3 was diluted with solvent 1 to prepare the solution of compound of Example 3 with concentrations of 2 mg/mL, 1 mg/mL, and 0.6 mg/mL; • Etrasimod solution: 6 mg of Etrasimod was dissolve in 6 mL of solvent 2 to obtain Etrasimod solution; • Ozanimod solution: 12 mg of […] was dissolved in 6 mL solvent 2 to obtain Ozanimod solution; • Note: Prepare once every two days, and store in refrigerator at 4° C.
Wherein, the purity of compound of Example 3 was 99.74%, Ozanimod and Etrasimod were prepared by the method described in Example 8, and the purities were 99.78% and 98.47% respectively.
The mouse stool was observed on its shape, bleeding condition every two days, and scored. Scoring criteria for stool condition: shape: normal (level 1), soft stool (level 2), and loose stool (level 3); traits: normal (level 1), faint redness (level 2), and bloody stool visible to the unaided eye (level 3).
After the last administration (8 consecutive days), the animals were dissected on the next day (day 9), the colon was separated, the whole colon was photographed, and the colon length was measured. Then the colon was cut longitudinally along the mesenteric side to remove the contents, which was weighed and observed on the integrity of the colonic mucosa. The colon was then fixed in 10% formalin.

[2] = target: T1, S1P1 (Homo sapiens, UniProt P21453); experiment: S1P1 overexpression cell activity by β-arrestin assay (U2OS-EDG1); format: cell-based; details: U2OS-EDG1 cells
T1 construct: host or cells: U2OS (human osteosarcoma) cell line, U2OS-EDG1
Procedure: The following experiments were conducted to detect the activity of the compound on S1P1 overexpression cells by β-arrestin assay. [table] [table] 3. Experimental Steps Day 1: Cell Seeding Plate and Compound Treatment • (1) Firstly, the compound was diluted by a 4-fold gradient into 10 concentration points from the concentration of 10 μM in the culture plate by using NL fluid transfer system, with 2 replicates at each concentration point. • (2) Cells were resuspended by using FreeStyle™ expression medium, and the cell density was adjusted to 7,500 cells per 40 μL suspension. The samples with test concentration were added into the well of the cell culture plate, and 40 μL cell suspension was added into the corresponding well. • (3) The above cell plates were incubated overnight in a CO2 incubator with 5% (volume fraction) at 37° C. Day 2: Detection and Data Analysis • (1) The buffer solution was prepared according to the preparation method in the instructions of LiveBLAser™-fluorescence resonance energy transfer B/G loading kit. • (2) 8 μL detection reagent was added to each well, which were shaken and mixed evenly for 1 minute, centrifugated at 1,000 rpm for 10 seconds, and incubated at 23° C. in dark for 2 hours. • 3) Detection was performed by multimode reader. • 4) The PrismDemo software was used to analyze the data and fit the curve. 4. Experimental Results

[3] = 6 mg/kg oral gavage once a day for 8 days
[4] = 10 mg/kg oral gavage once a day for 8 days
[5] = 20 mg/kg oral gavage once a day for 8 days
[6] = 30 mg/kg oral gavage once a day for 8 days
[7] = Day 1, 10 mg/kg oral gavage once a day
[8] = Day 2, 10 mg/kg oral gavage once a day
[9] = Day 3, 10 mg/kg oral gavage once a day
[10] = Day 4, 10 mg/kg oral gavage once a day
[11] = Day 5, 10 mg/kg oral gavage once a day
[12] = Day 6, 10 mg/kg oral gavage once a day
[13] = Day 7, 6 mg/kg oral gavage once a day
[14] = Day 7, 10 mg/kg oral gavage once a day
[15] = Day 7, 20 mg/kg oral gavage once a day
[16] = Day 7, 30 mg/kg oral gavage once a day
[17] = Day 8, 6 mg/kg oral gavage once a day
[18] = Day 8, 10 mg/kg oral gavage once a day
[19] = Day 8, 20 mg/kg oral gavage once a day
[20] = Day 8, 30 mg/kg oral gavage once a day
[21] = Day 9, 6 mg/kg oral gavage once a day
[22] = Day 9, 10 mg/kg oral gavage once a day
[23] = Day 9, 20 mg/kg oral gavage once a day
[24] = Day 9, 30 mg/kg oral gavage once a day

T1 sequence (P21453 whole entry): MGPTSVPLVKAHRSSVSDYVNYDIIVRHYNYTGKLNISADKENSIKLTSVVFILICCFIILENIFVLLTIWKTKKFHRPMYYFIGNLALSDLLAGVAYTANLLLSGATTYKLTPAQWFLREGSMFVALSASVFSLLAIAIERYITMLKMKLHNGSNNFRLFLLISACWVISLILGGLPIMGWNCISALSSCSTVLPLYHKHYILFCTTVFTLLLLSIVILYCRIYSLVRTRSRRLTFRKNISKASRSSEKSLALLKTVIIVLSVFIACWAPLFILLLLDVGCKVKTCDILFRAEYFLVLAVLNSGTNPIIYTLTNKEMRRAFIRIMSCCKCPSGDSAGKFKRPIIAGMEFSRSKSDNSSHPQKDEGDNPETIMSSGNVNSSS

In the case of O=C(O)CCn1ccc2cc(OCc3ccc(C4CCCC4)c(C(F)(F)F)c3)cc(Cl)c21 [Compound of Example 3, 3-(7-chlorine-5-((4-cyclopentyl-3-(trifluoromethyl)benzyl)oxy)-1H-indole-1-yl)propionic acid], the Colon length [1, 3] is reported as 39.061 ± 1.17, the Colon weight [1, 3] is reported as 0.164 ± 0.01 g and the “Colon weight compared with model group” value ([1]; 6 mg/kg) is reported as “statistically significant difference compared with that of the model group”. For the same compound, the “Effect on blood stool and loose stool compared with model group” value (“Effect … compared with model group” for short) ([1]; 6 mg/kg) was “significantly improving blood stool and loose stool”, the Colon length [1, 4] was 39.638 ± 0.76 and the Colon weight [1, 4] was 0.164 ± 0.01 g. The “Colon weight compared with model group” value ([1]; 10 mg/kg) was “statistically significant difference compared with that of the model group”, the “Effect … compared with model group” value ([1]; 10 mg/kg) was “significantly improving blood stool and loose stool” and the “Colon length compared with model group” value ([1]; 20 mg/kg) was “longer than that of the model group”. The Colon length [1, 5] was 44.892 ± 1.83, the Colon weight [1, 5] was 0.163 ± 0.01 g and the “Colon weight compared with model group” value ([1]; 20 mg/kg) was “statistically significant difference compared with that of the model group”. For the same compound, the “Effect … compared with model group” value ([1]; 20 mg/kg) was “significantly improving blood stool and loose stool”, the “Colon length compared with model group” value ([1]; 30 mg/kg) was “longer than that of the model group” and the Colon length [1, 6] was 41.311 ± 1.25. For the same compound, the Colon weight [1, 6] was 0.162 ± 0.01 g, the “Effect … compared with model group” value ([1]; 30 mg/kg) was “significantly improving blood stool and loose stool” and the Weight ([1]; Day 1, 6 mg/kg oral gavage once a day) was 21.3 ± 0.26 g. For the same compound, the Weight [1, 7] was 21.9 ± 0.2 g, the Weight ([1]; Day 1, 20 mg/kg oral gavage once a day) was 21.2 ± 0.34 g and the Weight ([1]; Day 1, 30 mg/kg oral gavage once a day) was 21.5 ± 0.17 g. For the same compound, the Weight ([1]; Day 2, 6 mg/kg oral gavage once a day) was 21.5 ± 0.27 g, the Weight [1, 8] was 22.1 ± 0.2 g and the Weight ([1]; Day 2, 20 mg/kg oral gavage once a day) was 21.7 ± 0.29 g. For the same compound, the Weight ([1]; Day 2, 30 mg/kg oral gavage once a day) was 21.9 ± 0.17 g, the Weight ([1]; Day 3, 6 mg/kg oral gavage once a day) was 21.1 ± 0.3 g and the Weight [1, 9] was 21.4 ± 0.32 g. The Weight ([1]; Day 3, 20 mg/kg oral gavage once a day) was 21.5 ± 0.33 g, the Weight ([1]; Day 3, 30 mg/kg oral gavage once a day) was 21.4 ± 0.34 g and the Weight ([1]; Day 4, 6 mg/kg oral gavage once a day) was 20.9 ± 0.47 g. The Weight [1, 10] was 21.3 ± 0.46 g, the Weight ([1]; Day 4, 20 mg/kg oral gavage once a day) was 21.8 ± 0.34 g and the Weight ([1]; Day 4, 30 mg/kg oral gavage once a day) was 21.1 ± 0.4 g. The Weight ([1]; Day 5, 6 mg/kg oral gavage once a day) was 21.1 ± 0.25 g, the Weight [1, 11] was 21.0 ± 0.6 g and the Weight ([1]; Day 5, 20 mg/kg oral gavage once a day) was 21.5 ± 0.33 g. It also gave a Weight ([1]; Day 5, 30 mg/kg oral gavage once a day) of 21.1 ± 0.39 g, a Weight ([1]; Day 6, 6 mg/kg oral gavage once a day) of 20.5 ± 0.25 g and a Weight [1, 12] of 20.4 ± 0.45 g. For the same compound, the Weight ([1]; Day 6, 20 mg/kg oral gavage once a day) was 20.3 ± 0.48 g, the Weight ([1]; Day 6, 30 mg/kg oral gavage once a day) was 20.1 ± 0.58 g and the Total stool scores [1, 13] was 5.6 ± 0.17. It also gave a Weight [1, 13] of 19.2 ± 0.23 g, a Total stool scores [1, 14] of 5.7 ± 0.22 and a Weight [1, 14] of 19 ± 0.46 g. It also gave a Total stool scores [1, 15] of 5.7 ± 0.21, a Weight [1, 15] of 19 ± 0.46 g and a Total stool scores [1, 16] of 5.4 ± 0.32. For the same compound, the Weight [1, 16] was 19.5 ± 0.52 g, the Total stool scores [1, 17] was 5.9 ± 0.11 and the Weight [1, 17] was 18.1 ± 0.38 g. For the same compound, the Total stool scores [1, 18] was 5.7 ± 0.22, the Weight [1, 18] was 17.8 ± 0.4 g and the Total stool scores [1, 19] was 5.9 ± 0.11. It also gave a Weight [1, 19] of 17.4 ± 0.58 g, a Total stool scores [1, 20] of 5.6 ± 0.23 and a Weight [1, 20] of 18.4 ± 0.51 g. It also gave a Total stool scores [1, 21] of 4.6 ± 0, a Weight [1, 21] of 16.3 ± 0.33 g and a Total stool scores [1, 22] of 4.8 ± 0.26. For the same compound, the Weight [1, 22] was 16.2 ± 0.3 g, the Total stool scores [1, 23] was 4.8 ± 0.31 and the Weight [1, 23] was 16.5 ± 0.4 g. For the same compound, the Total stool scores [1, 24] was 4.6 ± 0.39, the Weight [1, 24] was 17.2 ± 0.48 g and the “Effect on colon atrophy” value ([1]; oral gavage for 8 consecutive days, 6-30 mg/kg) was “certain inhibitory effect on colon atrophy”. It also gave an IC50 [2] of 0.148 nM.

With O=C(O)C[C@H]1CCc2c1[nH]c1ccc(OCc3ccc(C4CCCC4)c(C(F)(F)F)c3)cc21 [Etrasimod, reference compound] the Colon weight [1, 4] was 0.169 ± 0.01 g, the “Colon weight compared with model group” value ([1]; 10 mg/kg) was “statistically significant difference compared with that of the model group” and the “Effect … compared with model group” value ([1]; 10 mg/kg) was “had not significant improvement”. For the same compound, the Weight [1, 7] was 21.0 ± 0.26 g, the Weight [1, 8] was 21.6 ± 0.24 g and the Weight [1, 9] was 21.4 ± 0.25 g. For the same compound, the Weight [1, 10] was 21.7 ± 0.29 g, the Weight [1, 11] was 21.2 ± 0.27 g and the Weight [1, 12] was 20.5 ± 0.22 g. The Total stool scores [1, 14] was 6.0 ± 0, the Weight [1, 14] was 19.2 ± 0.26 g and the Total stool scores [1, 18] was 5.9 ± 0.11. It also gave a Weight [1, 18] of 18.0 ± 0.3 g, a Total stool scores [1, 22] of 5.6 ± 0 and a Weight [1, 22] of 16.6 ± 0.26 g. For the same compound, the IC50 [2] was 4.71 nM.
